Measurements: patent US10975126B1 (priority 2020, dated 2021)
No end group written: not given here.

System: MERS-CoV
Assay type: cell-based, MERS-CoV (CoV/KOR/KNIH/002_05_2015) in Vero cells

SLTQINWTLLDLTYEMESLQQVVKALNEYYIDLKEL [Peptide 5]
inhibition of MERS-CoV / decrease in plaque formation (in words): strong inhibition
